Laboratory results as given in ChEMBL document CHEMBL1177886, “Synthesis and biological evaluation of a novel series of 2,2-bisaminomethylated aurone analogues as anti-inflammatory and antimicrobial agents” (Eur J Med Chem, 2010).
Values after ≈ are worked out from the molar mass of the structure shown.

Columns and labels:
Staphylococcus aureus [1] = assay: Antibacterial activity against Staphylococcus aureus NCIM 2120 after 24 hrs by disc diffusion method; assay type: functional; conditions: for MIC: Staphylococcus aureus, NCIM 2120, 24 h
Klebsiella pneumoniae [2] = assay: Antibacterial activity against Klebsiella pneumoniae NCIM 5082 after 24 hrs by disc diffusion method; assay type: functional; conditions: for MIC: Klebsiella pneumoniae, NCIM 5082, 24 h
Proteus vulgaris [3] = assay: Antibacterial activity against Proteus vulgaris NCIM 2813 after 24 hrs by disc diffusion method; assay type: functional; conditions: for MIC: Proteus vulgaris, NCIM 2813, 24 h
Escherichia coli [4] = assay: Antibacterial activity against Escherichia coli NCIM 2065 after 24 hrs by disc diffusion method; assay type: functional; conditions: for MIC: Escherichia coli, NCIM 2065, 24 h
Aspergillus fumigatus = assay: Antifungal activity against Aspergillus fumigatus NCIM 902 after 72 hrs by disc diffusion method; assay type: functional; conditions: for MIC: Aspergillus fumigatus, NCIM 902, 72 h
Bacillus subtilis [5] = assay: Antibacterial activity against Bacillus subtilis NCIM 2546 after 24 hrs by disc diffusion method; assay type: functional; conditions: for MIC: Bacillus subtilis, NCIM 2546, 24 h
Aspergillus niger = assay: Antifungal activity against Aspergillus niger NCIM 545 after 72 hrs by disc diffusion method; assay type: functional; conditions: for MIC: Aspergillus niger, NCIM 545, 72 h
Trichoderma viride = assay: Antifungal activity against Trichoderma viride TT after 72 hrs by disc diffusion method; assay type: functional; conditions: for MIC: Trichoderma viride, TT, 72 h
Penicillium chrysogenum = assay: Antifungal activity against Penicillium chrysogenum NCIM 707 after 72 hrs by disc diffusion method; assay type: functional; conditions: for MIC: Penicillium chrysogenum, NCIM 707, 72 h
Candida albicans = assay: Antifungal activity against Candida albicans NCIM 3100 after 72 hrs by disc diffusion method; assay type: functional; conditions: for MIC: Candida albicans, NCIM 3100, 72 h
THP-1 [6] = assay: Antiinflammatory activity in human THP1 cells assessed as inhibition of LPS-induced IL-6 production at 10 uM treated 30 mins before LPS challenge measured after 24 hrs by ELISA relative to control; assay type: functional
THP-1 [7] = assay: Antiinflammatory activity in human THP1 cells assessed as inhibition of LPS-induced TNFalpha production at 10 uM treated 30 mins before LPS challenge measured after 24 hrs by ELISA relative to control; assay type: functional
[8] = Cytotoxicity against human THP-1 cells at 10 uM; conditions: THP-1, 10 µM
Bacillus subtilis [9] = assay: Antibacterial activity against Bacillus subtilis after 24 hrs by disc diffusion method
Staphylococcus aureus [10] = conditions: NCIM 2120
Proteus vulgaris [11] = conditions: NCIM 2813
Escherichia coli [12] = conditions: NCIM 2065
Bacillus subtilis [13] = conditions: NCIM 2546
Klebsiella pneumoniae [14] = conditions: NCIM 5082
THP-1 [15] = assay: Antiinflammatory activity in human THP1 cells assessed as inhibition of LPS-induced TNFalpha production at 1 uM treated 30 mins before LPS challenge measured after 24 hrs by ELISA relative to control; assay type: functional
THP-1 [16] = assay: Antiinflammatory activity in human THP1 cells assessed as inhibition of LPS-induced IL-6 production at 1 uM treated 30 mins before LPS challenge measured after 24 hrs by ELISA relative to control; assay type: functional

Compound	MIC (Staphylococcus aureus [1]) [µg/mL]	MIC (Klebsiella pneumoniae [2]) [µg/mL]	MIC (Proteus vulgaris [3]) [µg/mL]	MIC (Escherichia coli [4]) [µg/mL]	inhibition zone (IZ) (Aspergillus fumigatus) [mm]	MIC (Aspergillus fumigatus) [µg/mL]	MIC (Bacillus subtilis [5]) [µg/mL]	MIC (Aspergillus niger) [µg/mL]	MIC (Trichoderma viride) [µg/mL]	inhibition zone (IZ) (Penicillium chrysogenum) [mm]	MIC (Penicillium chrysogenum) [µg/mL]	MIC (Candida albicans) [µg/mL]	inhibition zone (IZ) (Staphylococcus aureus [1]) [mm]	inhibition zone (IZ) (Proteus vulgaris [3]) [mm]	inhibition at 10 µM (THP-1 [6]) [%]	inhibition at 10 µM (THP-1 [7]) [%]	inhibition zone (IZ) (Bacillus subtilis [5]) [mm]	inhibition zone (IZ) (Aspergillus niger) [mm]	inhibition zone (IZ) (Trichoderma viride) [mm]	inhibition zone (IZ) (Candida albicans) [mm]	other results
CCN(C)CC1(CN(C)CC)Oc2cc(OC)cc(OC)c2C1=O	> 100	> 100	> 100	> 100	14	50 (≈ 149 µM)	> 100	> 100	> 100	15	50 (≈ 149 µM)	> 100									
COc1cc(OC)c2c(c1)OC(CN1CCOCC1)(CN1CCOCC1)C2=O	50 (≈ 127 µM)	> 100	25 (≈ 63.7 µM)	25 (≈ 63.7 µM)	18	25 (≈ 63.7 µM)	25 (≈ 63.7 µM)	25 (≈ 63.7 µM)	25 (≈ 63.7 µM)	23	25 (≈ 63.7 µM)	50 (≈ 127 µM)	15	22	100	89	16	24	15	15	inhibition zone (IZ) (Escherichia coli [4]): 16 mm; Activity [8]: 66%
COc1cc(OC)c2c(c1)OC(CN1CCCC1)(CN1CCCC1)C2=O	25 (≈ 69.4 µM)	25 (≈ 69.4 µM)	25 (≈ 69.4 µM)	25 (≈ 69.4 µM)	22	25 (≈ 69.4 µM)	25 (≈ 69.4 µM)	25 (≈ 69.4 µM)	50 (≈ 139 µM)	16	25 (≈ 69.4 µM)	50 (≈ 139 µM)	15	22	100	100	20	21	15	14	inhibition zone (IZ) (Klebsiella pneumoniae [2]): 20 mm; inhibition zone (IZ) (Bacillus subtilis [9]): 18 mm; Activity [8]: 83%
COc1cc(OC)c2c(c1)OC(CN1CCN(C)CC1)(CN1CCN(C)CC1)C2=O	> 100	> 100	25 (≈ 59.7 µM)	50 (≈ 119 µM)	15	50 (≈ 119 µM)	50 (≈ 119 µM)	50 (≈ 119 µM)		14	50 (≈ 119 µM)	> 100		16	97	76	14	14			inhibition zone (IZ) (Escherichia coli [4]): 14 mm; Activity [8]: 29%
CCN(CC)CC1(CN(CC)CC)Oc2cc(OC)cc(OC)c2C1=O	25 (≈ 68.6 µM)	25 (≈ 68.6 µM)	25 (≈ 68.6 µM)	25 (≈ 68.6 µM)	17	25 (≈ 68.6 µM)	25 (≈ 68.6 µM)	25 (≈ 68.6 µM)	25 (≈ 68.6 µM)	15	50 (≈ 137 µM)	25 (≈ 68.6 µM)	16	17	74	28	18	17	16	16	inhibition zone (IZ) (Klebsiella pneumoniae [2]): 17 mm; inhibition zone (IZ) (Bacillus subtilis [9]): 17 mm; Activity [8]: 37%
OC(Cn1cncn1)(Cn1cncn1)c1ccc(F)cc1F [FLUCONAZOLE]					21	25 (≈ 81.6 µM)		25 (≈ 81.6 µM)	25 (≈ 81.6 µM)	24	25 (≈ 81.6 µM)	25 (≈ 81.6 µM)						24	18	24	
GENTAMICIN																					MIC (Staphylococcus aureus [10]): 25 µg/mL; IZ (Proteus vulgaris [11]): 24 mm; MIC (Proteus vulgaris [11]): 25 µg/mL; MIC (Escherichia coli [12]): 25 µg/mL; IZ (Bacillus subtilis [13]): 21 mm; MIC (Bacillus subtilis [13]): 25 µg/mL; IZ (Klebsiella pneumoniae [14]): 24 mm; MIC (Klebsiella pneumoniae [14]): 25 µg/mL
C[C@@H]1C[C@H]2[C@@H]3CCC4=CC(=O)C=C[C@]4(C)[C@@]3(F)[C@@H](O)C[C@]2(C)[C@@]1(O)C(=O)CO [DEXAMETHASONE]																					inhibition at 1 µM (THP-1 [15]): 69%; inhibition at 1 µM (THP-1 [16]): 90%
COc1cc(OC)c2c(c1)OC(CN1CCCCC1)(CN1CCCCC1)C2=O	25 (≈ 64.3 µM)	25 (≈ 64.3 µM)	50 (≈ 129 µM)	25 (≈ 64.3 µM)	16	50 (≈ 129 µM)	25 (≈ 64.3 µM)	25 (≈ 64.3 µM)	50 (≈ 129 µM)	18	25 (≈ 64.3 µM)	> 100	16	15	82	35	18	17	14		inhibition zone (IZ) (Klebsiella pneumoniae [2]): 18 mm; Activity [8]: 21%
CCCCN(CCCC)CC1(CN(CCCC)CCCC)Oc2cc(OC)cc(OC)c2C1=O	25 (≈ 52.4 µM)	25 (≈ 52.4 µM)	25 (≈ 52.4 µM)	25 (≈ 52.4 µM)	22	25 (≈ 52.4 µM)	25 (≈ 52.4 µM)	25 (≈ 52.4 µM)	25 (≈ 52.4 µM)	24	25 (≈ 52.4 µM)	25 (≈ 52.4 µM)	18	22	37	17	21	26	16	17	inhibition zone (IZ) (Klebsiella pneumoniae [2]): 21 mm; inhibition zone (IZ) (Bacillus subtilis [9]): 18 mm; Activity [8]: 65%
COc1cc(OC)c2c(c1)OC(CN(C)C)(CN(C)C)C2=O	50 (≈ 162 µM)	50 (≈ 162 µM)	50 (≈ 162 µM)	50 (≈ 162 µM)	18	25 (≈ 81.1 µM)	50 (≈ 162 µM)	50 (≈ 162 µM)	25 (≈ 81.1 µM)	15	50 (≈ 162 µM)	25 (≈ 81.1 µM)	14	15			14	16	15	16	inhibition zone (IZ) (Klebsiella pneumoniae [2]): 15 mm; inhibition zone (IZ) (Bacillus subtilis [9]): 15 mm
CCN1CCN(CC2(CN3CCN(CC)CC3)Oc3cc(OC)cc(OC)c3C2=O)CC1	25 (≈ 56 µM)	25 (≈ 56 µM)	50 (≈ 112 µM)	50 (≈ 112 µM)	14	50 (≈ 112 µM)	50 (≈ 112 µM)	50 (≈ 112 µM)	50 (≈ 112 µM)	16	25 (≈ 56 µM)	50 (≈ 112 µM)	15	14			16	14	13	13	inhibition zone (IZ) (Klebsiella pneumoniae [2]): 17 mm; inhibition zone (IZ) (Escherichia coli [4]): 16 mm
